This is an account of results in PubChem BioAssay (NCI).

Experiment in all cases: inhibition of tumour cell growth, NCI panel, 48 h
The test system of test [1] is HS 578T breast.
Test [2] relates to LOX IMVI melanoma.
Test [3] relates to MALME-3M melanoma.
Test [4] concerns NCI-H226 lung.
The test system of test [5] is SK-MEL-28 melanoma.
Test [6] has as its system SN12C renal.
Test [7] deals with SR leukemia.
Test [8] concerns T-47D breast.
The test system of test [9] is UACC-62 melanoma.
Test [10] deals with UO-31 renal.

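Compound exposure: 48 hours, 5 concentrations, 96-well plates. GI50 = concentration required for 50% inhibition of growth. TGI is the concentration that stops growth completely.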

With `O=C(Nc1ccc(-n2ccc3c(NC(=O)c4ccccc4)ncnc32)cc1)Nc1ccc(Cl)c(Cl)c1`, the GI50 in test [1] is 1.19 µM; in [2] it was 2.38 µM; in test [3], 3.39 µM; in [4], 11.7 µM; in test [5] it was 2.92 µM; in test [6], 4.76 µM. Further, the GI50 is 1.17 µM in [7], 3.32 µM in [8], 6.34 µM in [9] and 7.16 µM in test [10]. Besides, the TGI in test [1] turned out to be 5.77 µM; in [2], 16.3 µM; in test [3], 12 µM; in [4], 29.2 µM; in test [5], 9.43 µM; in test [6], 12.3 µM. Also, the TGI in test [7] amounted to 2.7 µM; in test [8], 11.7 µM; in test [9] it was 13.1 µM; in [10], 14.8 µM.

Take `CC(=O)OCC1OC(Nn2c(=O)[nH]c3ccccc3c2=O)C(OC(C)=O)C(OC(C)=O)C1OC(C)=O` (stereo not given): the TGI in test [1], in [2], in test [3], in [4], in test [5] and in [6] was more than 100 µM each time. The TGI in [7], in test [8], in test [9] and in test [10] was more than 100 µM in each case.

As for `COc1ccccc1C1ON=C(c2ccc([N+](=O)[O-])cc2)N1C12CC3CC(CC(C3)C1)C2` (stereo not given), the TGI in test [1], in [2], in test [3], in test [4], in test [5] and in test [6] was more than 100 µM each time. For the same compound, the TGI in test [7], in test [8], in test [9] and in test [10] was more than 100 µM in each case.

As to `CC(C)=CCC/C(C)=C/CC/C(C)=C/CC/C(C)=C/CC/C(C)=C/CC/C(C)=C/CC/C(C)=C/CC/C(C)=C/CC/C(C)=C/CO`, the TGI in [1], in test [2], in [3], in [4], in test [5] and in test [6] was more than 100 µM each time. For the same compound, the TGI in test [7], in test [8], in [9] and in test [10] was more than 100 µM throughout.

Regarding `NC(Cc1ccc(N(CCCl)CCCl)cc1)C(=O)NC(CCC(=O)O)C(=O)O` (stereo not given), the TGI in [1], in test [2], in [3], in test [4], in test [5] and in test [6] was more than 100 µM in each case. The TGI in test [7], in test [8], in [9] and in test [10] was more than 100 µM each time.

Turning to `COc1cc(NCCC2CCCCN2)c2ncccc2c1` (stereo not given), the TGI in test [1] was more than 100 µM; in test [2], more than 100 µM; in test [3], more than 57.6 µM; in [4] it was 97.9 µM; in test [5], more than 59.8 µM; in test [6], more than 77.2 µM. For the same compound, the TGI in test [7] was more than 81.3 µM; in test [8], 4.83 µM; in test [9], more than 59.9 µM; in test [10], more than 100 µM.

In the case of `O=C1C2=C(CC3=C(C2)CS(=O)(=O)C3)C(=O)C2=C1CC1=C(C2)CS(=O)(=O)C1`, the TGI is more than 60.6 µM in [1]; more than 59.9 µM in test [2]; 19.2 µM in test [3]; more than 59.7 µM in test [4]; more than 70 µM in test [5]; 30.2 µM in [6]. The TGI was 18.6 µM in [7], 8.66 µM in [8], 37.1 µM in [9] and more than 63.4 µM in [10].

For `S=C1CCSc2c(ccc3ccccc23)N1`, the TGI in [1], in test [2], in test [3], in test [4], in [5] and in [6] was more than 100 µM throughout. Further, the TGI in test [7], in [8], in test [9] and in test [10] was more than 100 µM each time.

As to `COC(=O)C(Cc1c[nH]c2ccccc12)NC(=O)c1ccc(-c2ccc(Cl)cc2Cl)o1` (stereo not given), the TGI in test [1], in test [2], in test [3], in test [4], in test [5] and in [6] was more than 100 µM throughout. Also, the TGI in test [7], in test [8], in test [9] and in test [10] was more than 100 µM in each case.

`COC(=O)c1cc(C(=CCC[C@H]2CC[C@@]3(C)C(CCC4C3CC[C@@]3(C)C4CC[C@@H]3C(C)CCCC(C)C)C2)c2cc(Cl)c(O)c(C(=O)OC)c2)cc(Cl)c1O` (stereo not given in full): the TGI in test [1], in test [2], in test [3], in test [4], in [5] and in [6] was more than 10 µM throughout. For the same compound, the TGI in test [7], in test [8], in test [9] and in test [10] was more than 10 µM throughout.

On to `NC(=O)Cc1nc2c(N)ncnc2n1C1OC(CO)C(O)C1O` (stereo not given), for which the TGI in [1], in test [2], in test [3], in test [4], in [5] and in test [6] was more than 100 µM throughout. The TGI in test [7], in test [8], in [9] and in test [10] was more than 100 µM each time.

As for `C/C=C(\C)C(O)C(C)C(O)C/C=C(C)/C=C(\C)C/C(C)=C/C/C=C(\C)C(O)C(C)c1ccc(CCC)c(=O)o1` (stereo not given), the TGI worked out at 37.9 µM in test [1]; 28.3 µM in test [2]; 27.1 µM in test [3]; 55.6 µM in test [4]; 32.3 µM in test [5]; 46.2 µM in test [6]. Besides, the TGI in test [7] is more than 100 µM; in [8], 65.4 µM; in test [9] it was 26.1 µM; in test [10], 21 µM.

Take `CCOC(=O)C1=NN(c2ccc([N+](=O)[O-])cc2)[C@@]2(C)C[C@]3(c4ccccc4)N(c4ccc([N+](=O)[O-])cc4)N=C(C(=O)OCC)N3c3ccccc3N12`: the TGI in test [1], in [2], in test [3], in test [4], in [5] and in [6] was more than 100 µM each time. Further, the TGI in test [7], in [8], in [9] and in test [10] was more than 100 µM each time.

For the compound `CC(C)=CC(Cc1ccccc1)S(=O)(=O)c1nc2ccccc2s1` (stereo not given), the TGI in test [1] was more than 80 µM; in test [2], 11.9 µM; in test [3], 32.1 µM; in test [4] it was 29.6 µM; in test [5], 32.3 µM; in test [6] it was 31.8 µM. Besides, the TGI is 5.24 µM in test [7], more than 67.2 µM in [8], 46.5 µM in test [9] and 27.5 µM in test [10].

As for `COc1cc(-c2cc(=O)c3c(O)c(CC=C(C)C)c(O)cc3o2)ccc1O`, the TGI was more than 50 µM in [1]; more than 50 µM in test [2]; more than 50 µM in [3]; more than 50 µM in test [4]; 26.7 µM in [5]; more than 50 µM in test [6]. For the same compound, the TGI in [7] was 41.9 µM; in test [8], 40.8 µM; in [9], more than 50 µM; in [10] it was more than 50 µM.

With `COc1ccc(Cc2nnc(Nc3ccc(Br)cc3)[nH]c2=O)cc1OC`, the TGI in test [1], in [2], in [3], in test [4], in test [5] and in [6] was more than 100 µM throughout. In addition, the TGI is more than 94.3 µM in test [7], more than 100 µM in [8], more than 100 µM in [9] and more than 100 µM in test [10].
